Measured values reported in US20260200939A1, “MOLECULAR GLUE DEGRADER COMPOUNDS AND USES THEREOF” (Novartis AG, priority 2022, published 2026).
Blank lines part the entries; values can stand above or below the molecule they belong to.

What was measured:
pure RNF126 protein = target: T1, pure RNF126 protein (Homo sapiens, UniProt Q9BV68); assay: Mass spectrometry analysis of compound-labeled RNF126 tryptic digests; format: binding
T1 construct: FLAG (C); host or cells: HEK293T

CDK4 = target: T2, CDK4 (Homo sapiens, UniProt P11802); assay: CDK4 Degradation Assay, Western blotting; format: cell-based; conditions: for CDK4 degradation, in words: C33A cells, immunoblot
T2 construct: endogenous in cells; host or cells: C33A
Description: (§1) C33A cells were purchased from American Type Culture Collection (ATCC) and were cultured in Dulbecco's Modified Eagle Medium (DMEM) containing 10% (v/v) fetal bovine serum (FBS) and maintained at 37° C. with 5% CO2. 22RV1 cells were purchased from the ATCC and were cultured in RPMI-1640 Medium containing 10% (v/v) FBS and maintained at 37° C. with 5% CO2. HEK293T cells were obtained from the UC Berkeley Cell Culture Facility and were cultured in DMEM containing 10% (v/v) FBS and maintained at 37° C. with 5% CO2. K562 cells were obtained from the UC Berkeley Cell Culture Facility and were cultured in Iscove's Modified Dulbecco's Medium (IMDM) containing 10% (v/v) FBS and maintained at 37° C. with 5% CO2. MV-4-11 cells were obtained from the ATCC and were cultured in IMDM containing 10% (v/v) FBS and maintained at 37° C. with 5% CO2. A549 cells were obtained from the ATCC and were cultured in F-12K Medium containing 10% (v/v) FBS and maintained at 37° C. with 5% CO2. Mino cells were obtained from the ATCC and were cultured in RPMI-1640 Medium containing 10% (v/v) FBS and maintained at 37° C. with 5% CO2. LNCaP cells were obtained from the ATCC and were cultured in RPMI-1640 Medium containing 10% (v/v) FBS and maintained at 37° C. with 5% CO2. Unless otherwise specified, all cell culture materials were purchased from Gibco. It is not known whether HEK293T cells are from male or female origin.
(§2) Cells were washed twice with cold PBS, scraped, and pelleted by centrifugation (700 g, 5 min, 4° C.). Pellets were resuspended in PBS, sonicated, clarified by centrifugation (12,000 g, 10 min, 4° C.), and lysate was transferred to new low-adhesion microcentrifuge tubes. Proteome concentrations were determined using BCA assay and lysate was diluted to appropriate working concentrations.
(§3) Proteins were resolved by SDS/PAGE and transferred to nitrocellulose membranes using the Trans-Blot Turbo transfer system (Bio-Rad). Membranes were blocked with 5% BSA in Tris-buffered saline containing Tween 20 (TBS-T) solution for 30 min at RT, washed in TBS-T, and probed with primary antibody diluted in recommended diluent per manufacturer overnight at 4° C. After 3 washes with TBS-T, the membranes were incubated in the dark with IR680- or IR800-conjugated secondary antibodies at 1:10,000 dilution in 5% BSA in TBS-T at RT for 1 h. After 3 additional washes with TBST, blots were visualized using an Odyssey Li-Cor fluorescent scanner. The membranes were stripped using ReBlot Plus Strong Antibody Stripping Solution (EMD Millipore) when additional primary antibody incubations were performed. Antibodies used in this study were CDK4 (Abcam ab108357), Vinculin (Abcam ab129002), GAPDH (Cell Signaling Technology 14C10), RNF126 (Santa Cruz Biotechnology sc-376005), BRD4 (Abcam ab128874), Beta Actin (Cell Signaling Technology 13E5), PDE5 (Abcam ab259945), AR-V7 (Abcam ab273500), c-Abl (Santa Cruz Biotechnology sc-23), SMARCA2 (Abcam ab240648), LRRK2 (Abcam ab133474), BTK (Cell Signaling Technology D3H5), Androgen Receptor (Abcam ab133273).

Recombinant RNF126 = target: T3, Recombinant RNF126 (Homo sapiens, UniProt Q9BV68); assay: RNF126 Binding Assay, gel-based ABPP
T3 construct: FLAG (C); host or cells: HEK293T
Description: RNF126 mammalian expression plasmid with a C-terminal FLAG tag was purchased from Origene (Origene Technologies Inc., RC204986). The plasmid was transformed into NEB 5-alpha Competent E. coli (DH5) cells (NEB product no. C2987H). The following day, a single transformed colony was used to inoculate 50 ml of nutrient rich LB medium containing kanamycin (50 μg/ml) and was incubated at 37° C. overnight, with agitation (250 rpm). A Miniprep (Qiagen) kit was used to isolate the plasmid before sequence verification with appropriate primers.
HEK293T cells were grown to 30-50% confluency in DMEM supplemented with 10% FBS (Corning) and maintained at 37° C. with 5% CO2. Immediately before transfection, media was replaced with DMEM containing 5% FBS. Each plate was transfected with 24 μg of overexpression plasmid with 24 μL Lipofectamine 3000 (Invitrogen) in Opti-MEM. After 48 h cells were collected in PBS, lysed by sonication, and batch bound with anti-DYKDDDDK resin (GenScript, L00432) for 2 hours. Lysate and resin were washed with PBS and eluted with 133.33 μg/ml 3×FLAG peptide (ApexBio, A6001) in PBS. Five elutions were performed for 15 minutes each. Elutions were concentrated and the protein was stored in PBS. Concentration and purity was determined using the BCA assay and western blotting.
Recombinant RNF126 ([…]) was pre-treated with either DMSO vehicle or covalent ligand at 37° C. for 30 min in 25 μL of PBS, and subsequently treated with of IA-Rhodamine (concentrations designated in figure legends) (Setareh Biotech) at room temperature for 1 h in the dark. The reaction was stopped by addition of 4×reducing Laemmli SDS sample loading buffer (Alfa Aesar). After boiling at 95° C. for 5 min, the samples were separated on precast 4-20% Criterion TGX gels (Bio-Rad). Probe-labeled proteins were analyzed by in-gel fluorescence using a ChemiDoc MP (Bio-Rad).

SMARCA2 = target: T4, SMARCA2 (Homo sapiens, UniProt P51531); assay: SMARCA2 Degradation assay, Western blotting; format: cell-based
T4 construct: endogenous in cells; host or cells: MV-4-11
Description: as §1, §2
Proteins were resolved by SDS/PAGE and transferred to nitrocellulose membranes using the Trans-Blot Turbo transfer system (Bio-Rad). […]

Androgen Receptor = Androgen Receptor Degradation assay, Western blotting; format: cell-based; conditions: for degradation of AR, in words: LNCaP and 22RV1 prostate cancer cells
Description: as §1, §2, §3

AR-V7 = target: T5, AR-V7 (Homo sapiens, UniProt P10275); assay: AR-V7 degradation in prostate cancer cells, Western blotting; format: cell-based; conditions: LNCaP and 22RV1 prostate cancer cells
T5 construct: endogenous in cells; host or cells: 22RV1 and/or LNCaP
T5 sequence (P10275 1-644 isoform P10275-3): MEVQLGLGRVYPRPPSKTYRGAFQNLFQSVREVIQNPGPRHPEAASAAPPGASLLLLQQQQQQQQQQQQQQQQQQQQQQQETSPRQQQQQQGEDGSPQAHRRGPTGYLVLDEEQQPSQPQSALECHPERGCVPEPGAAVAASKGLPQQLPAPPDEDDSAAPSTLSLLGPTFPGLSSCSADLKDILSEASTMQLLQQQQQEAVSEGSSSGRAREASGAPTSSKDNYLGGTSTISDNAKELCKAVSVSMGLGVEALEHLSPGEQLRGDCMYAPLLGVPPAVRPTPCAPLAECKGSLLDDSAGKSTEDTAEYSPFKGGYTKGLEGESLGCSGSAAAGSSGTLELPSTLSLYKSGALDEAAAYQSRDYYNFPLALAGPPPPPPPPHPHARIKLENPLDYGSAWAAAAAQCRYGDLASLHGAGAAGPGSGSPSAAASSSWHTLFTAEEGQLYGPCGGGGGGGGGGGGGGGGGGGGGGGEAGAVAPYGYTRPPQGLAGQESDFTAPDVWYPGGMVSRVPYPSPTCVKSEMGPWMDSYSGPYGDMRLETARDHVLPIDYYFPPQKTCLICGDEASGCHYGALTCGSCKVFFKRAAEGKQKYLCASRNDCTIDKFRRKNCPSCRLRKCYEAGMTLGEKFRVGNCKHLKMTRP
Description: as §1, with “LNCaP cells were obtained from the ATCC and were cultured in RPMI-1640 Medium containing 10% (v/v) FBS and maintained at 37° C. with 5% CO2. Unless otherwise specified, all cell culture materials were purchased from Gibco. It is not known whether HEK293T cells are from male or female origin.” left out
Cells were washed twice with cold PBS, scraped, and pelleted by centrifugation (700 g, 5 min, 4° C.). […] Proteome concentrations were determined using BCA assay and lysate was diluted to appropriate working concentrations. […]

T3 sequence (Q9BV68 whole entry): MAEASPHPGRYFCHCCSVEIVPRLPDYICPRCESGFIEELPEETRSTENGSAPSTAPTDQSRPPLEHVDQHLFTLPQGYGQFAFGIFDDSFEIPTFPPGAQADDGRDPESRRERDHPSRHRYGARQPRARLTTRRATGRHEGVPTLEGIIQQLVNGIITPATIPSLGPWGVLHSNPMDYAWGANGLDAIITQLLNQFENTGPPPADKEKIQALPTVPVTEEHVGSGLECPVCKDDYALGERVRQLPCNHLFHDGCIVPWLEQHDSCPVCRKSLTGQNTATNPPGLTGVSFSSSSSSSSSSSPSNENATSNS
T4 sequence (P51531 whole entry): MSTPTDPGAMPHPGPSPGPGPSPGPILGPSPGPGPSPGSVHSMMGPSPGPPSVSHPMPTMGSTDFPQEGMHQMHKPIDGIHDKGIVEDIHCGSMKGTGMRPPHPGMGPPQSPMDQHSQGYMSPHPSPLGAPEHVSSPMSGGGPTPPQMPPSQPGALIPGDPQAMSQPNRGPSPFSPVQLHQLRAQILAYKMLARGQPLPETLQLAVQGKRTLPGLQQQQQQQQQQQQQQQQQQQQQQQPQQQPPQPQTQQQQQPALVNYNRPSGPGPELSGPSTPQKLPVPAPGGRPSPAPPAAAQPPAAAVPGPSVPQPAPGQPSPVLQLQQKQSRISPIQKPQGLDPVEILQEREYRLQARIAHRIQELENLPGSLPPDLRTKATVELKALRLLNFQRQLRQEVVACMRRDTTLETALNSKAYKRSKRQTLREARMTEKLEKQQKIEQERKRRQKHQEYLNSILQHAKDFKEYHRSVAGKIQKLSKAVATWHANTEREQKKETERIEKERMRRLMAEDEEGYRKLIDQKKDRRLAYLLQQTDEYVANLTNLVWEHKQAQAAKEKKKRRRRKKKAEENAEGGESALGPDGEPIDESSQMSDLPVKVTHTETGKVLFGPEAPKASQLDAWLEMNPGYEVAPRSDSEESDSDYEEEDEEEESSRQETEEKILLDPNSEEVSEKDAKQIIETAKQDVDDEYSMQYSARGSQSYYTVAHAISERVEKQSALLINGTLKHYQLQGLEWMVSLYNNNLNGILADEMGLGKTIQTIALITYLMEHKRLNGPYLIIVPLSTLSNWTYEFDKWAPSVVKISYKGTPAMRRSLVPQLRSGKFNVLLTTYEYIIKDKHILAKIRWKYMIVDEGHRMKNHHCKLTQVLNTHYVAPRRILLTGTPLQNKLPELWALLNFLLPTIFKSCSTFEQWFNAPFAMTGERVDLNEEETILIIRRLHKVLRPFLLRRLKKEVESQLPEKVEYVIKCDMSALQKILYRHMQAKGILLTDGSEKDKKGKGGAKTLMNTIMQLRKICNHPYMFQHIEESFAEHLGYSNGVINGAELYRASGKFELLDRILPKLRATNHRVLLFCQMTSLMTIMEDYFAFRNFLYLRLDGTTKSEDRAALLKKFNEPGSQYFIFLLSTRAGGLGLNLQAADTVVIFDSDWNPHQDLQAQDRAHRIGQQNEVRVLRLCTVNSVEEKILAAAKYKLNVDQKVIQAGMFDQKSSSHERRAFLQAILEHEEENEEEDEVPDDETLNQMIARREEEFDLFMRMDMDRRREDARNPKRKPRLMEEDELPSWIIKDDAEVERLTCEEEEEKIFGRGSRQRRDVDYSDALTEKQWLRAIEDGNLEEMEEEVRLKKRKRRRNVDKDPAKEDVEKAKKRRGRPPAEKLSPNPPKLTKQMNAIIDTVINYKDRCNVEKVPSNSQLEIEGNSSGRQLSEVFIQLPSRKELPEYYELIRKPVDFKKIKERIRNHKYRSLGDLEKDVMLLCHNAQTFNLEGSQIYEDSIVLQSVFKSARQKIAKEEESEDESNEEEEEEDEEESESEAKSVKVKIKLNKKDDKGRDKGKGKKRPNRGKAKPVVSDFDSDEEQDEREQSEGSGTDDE
T1 sequence (Q9BV68 whole entry): as the sequence (Q9BV68 whole entry) above

- adduct on RNF126 by mass spectrometry of tryptic digests (pure RNF126 protein): reacts with C32 of RNF126
- CDK4 degradation, in words (CDK4): in a dose-responsive manner
SMILES: COc1ccc(C(=O)/C=C/C(=O)N2CCN(c3ccc(Nc4ncc5cc(C(=O)N(C)C)n(C6CCCC6)c5n4)nc3)CC2)cc1 [Compound 113, (E)-7-cyclopentyl-2-((5-(4-(4-(4-methoxyphenyl)-4-oxobut-2-enoyl)piperazin-1-yl)pyridin-2-yl)-amino)-N,N-dimethyl-7H-pyrrolo[2,3-d]pyrimidine-6-carboxamide]

- binding to RNF126 (gel-based ABPP), in words (Recombinant RNF126): potent binding
SMILES: COc1ccc(C(=O)/C=C/C(=O)N2CCN(c3cc(-c4ccccc4O)nnc3N)CC2)cc1 [Compound 128]
- degradation of SMARCA2, in words (SMARCA2; MV-4-11 leukemia cancer cells): degradation of SMARCA2 in MV-4-11 leukemia cancer cells cell in a dose-responsive manner

- binding to RNF126 (gel-based ABPP), in words (Recombinant RNF126): potent binding
- degradation of AR-V7, in words (AR-V7): degradation of AR and AR-V7
SMILES: COc1ccc(C(=O)/C=C/C(=O)N2CCN(C(=O)COc3ccc(-c4csc(N5CCOCC5)n4)cc3)CC2)cc1 [Compound 132]
- degradation of AR, in words (Androgen Receptor): degradation of AR and AR-V7

- binding to RNF126 (gel-based ABPP), in words (Recombinant RNF126): potent binding
- degradation of AR-V7, in words (AR-V7): degradation of AR and AR-V7
SMILES: COc1ccc(C(=O)/C=C/C(=O)N2CCN(c3ccc(-c4csc(N5CCOCC5)n4)cc3)CC2)cc1 [Compound 133]
- degradation of AR, in words (Androgen Receptor): degradation of AR and AR-V7

- binding to RNF126 (gel-based ABPP), in words (Recombinant RNF126): maintained binding to RNF126
- CDK4 degradation, in words (CDK4): capable to degrading CDK4
SMILES: COc1ccc(C(=O)/C=C/C(=O)N2CCN(c3ccc(Nc4ncc5c(C)c(C(C)=O)c(=O)n(C6CCCC6)c5n4)nc3)CC2)cc1 [Compound 136]

- DC50 (Androgen Receptor): > 10 µM
SMILES: COc1ccc(C(=O)/C=C/C(=O)N[C@H]2C[C@H](NC(=O)CN3CCN(c4ccc(C(=O)N[C@H]5CC[C@H](Oc6ccc(C#N)c(Cl)c6)CC5)nn4)CC3)C2)cc1 [Compound 200, N-((1r,4r)-4-(3-chloro-4-cyanophenoxy)cyclohexyl)-6-(4-(2-(((1r,3r)-3-((E)-4-(4-methoxyphenyl)-4-oxobut-2-enamido)cyclobutyl)amino)-2-oxoethyl)piperazin-1-yl)pyridazine-3-carboxamide]

- DC50 (Androgen Receptor): > 10 µM
SMILES: COc1ccc(C(=O)/C=C/C(=O)N[C@H]2C[C@H](NC(=O)CN3CCN(c4ccc(C(=O)N[C@H]5CC[C@H](Oc6ccc(C#N)c(Cl)c6)CC5)nn4)CC3)C2)c(F)c1 [Compound 201, N-((1r,4r)-4-(3-chloro-4-cyanophenoxy)cyclohexyl)-6-(4-(2-(((1r,3r)-3-((E)-4-(2-fluoro-4-methoxyphenyl)-4-oxobut-2-enamido)cyclobutyl)amino)-2-oxoethyl)piperazin-1-yl)pyridazine-3-carboxamide]

- DC50 (SMARCA2): > 5 µM
SMILES: COc1ccc(C(=O)/C=C/C(=O)N[C@H]2C[C@H](NC(=O)CN3CCN(c4cc(-c5ccccc5O)nnc4N)CC3)C2)c(F)c1 [Compound 282, (E)-N-((1r,3r)-3-(2-(4-(3-amino-6-(2-hydroxyphenyl)pyridazin-4-yl)piperazin-1-yl)acetamido)cyclobutyl)-4-(2-fluoro-4-methoxyphenyl)-4-oxobut-2-enamide]

- DC50 (SMARCA2): > 5 µM
SMILES: COc1ccc(C(=O)/C=C/C(=O)N[C@H]2C[C@H](NC(=O)CN3CCN(c4cc(-c5ccccc5O)nnc4N)CC3)C2)cc1 [Compound 283, (E)-N-((1r,3r)-3-(2-(4-(3-amino-6-(2-hydroxyphenyl)pyridazin-4-yl)piperazin-1-yl)acetamido)cyclobutyl)-4-(4-methoxyphenyl)-4-oxobut-2-enamide]

- DC50 (CDK4): > 10 µM
SMILES: CN(C)C(=O)c1cc2cnc(Nc3ccc(N4CCN(C(=O)/C=C/C(=O)c5ccc(Br)cc5)CC4)cn3)nc2n1C1CCCC1 [Compound 284, (E)-2-((5-(4-(4-(4-bromophenyl)-4-oxobut-2-enoyl)piperazin-1-yl)pyridin-2-yl)amino)-7-cyclopentyl-N,N-dimethyl-7H-pyrrolo[2,3-d]pyrimidine-6-carboxamide]

- DC50 (Androgen Receptor): > 10 µM
SMILES: COc1ccc(C(=O)/C=C/C(=O)N[C@H]2C[C@H](NC(=O)CN3CCN(c4ccc(C(=O)N[C@H]5CC[C@H](Oc6ccc(C#N)c(Cl)c6)CC5)nn4)CC3)C2)c(Cl)c1 [Compound 286, N-((1r,4r)-4-(3-chloro-4-cyanophenoxy)cyclohexyl)-6-(4-(2-(((1r,3r)-3-((E)-4-(2-chloro-4-methoxyphenyl)-4-oxobut-2-enamido)cyclobutyl)amino)-2-oxoethyl)piperazin-1-yl)pyridazine-3-carboxamide]
